Patent US8217072B2, “Salinosporamides and methods for use thereof” (The Regents of the University of California, priority 2003, dated 2012)

How the values were obtained:
[1] = test system: Candida albicans(amphoterocin B resistant); test: Antifungal screening, Candida albicans (amphoterocin B resistant); type: cell-based; set-up: key: NSA = no significant activity
[2] = test system: Staphylococcus aureus (methecillin resistant); test: Antibacterial screening, Staphylococcus aureus; type: cell-based; set-up: key to IC50: NSA = no significant activity
[3] = test system: Enterococcus faecium (vanomycin resistant); test: Antibacterial screening, Enterococcus faecium; type: cell-based; set-up: key to IC50: NSA = no significant activity
[4] = Solubility in organic solvents; conditions: CHCl3, methanol, and other polar solvents like DMSO, acetone, acetonitrile, benzene, pyridine, N,N-dimethylformamide

In the case of `C[C@@]12OC(=O)[C@]1([C@@H](O)[C@@H]1C=CCCC1)NC(=O)[C@@H]2CCCl` [Salinosporamide A], the IC50 [1] is reported as “NSA*”, the antibacterial activity [2] is reported as “no antibacterial activity” and the IC50 ([2]; methecillin resistant) is reported as “NSA*”. The antibacterial activity [3] was “no antibacterial activity”, the IC50 ([3]; vanomycin resistant) was “NSA*” and the solubility [4] was “soluble”.
